Source: publication PMC10403574, “Discovery of a pyrrole-pyridinimidazole derivative as novel SIRT6 inhibitor for sensitizing pancreatic cancer to gemcitabine” (Cell Death & Disease, 2023)

Columns and labels:
[1] = molecular target: T1, SIRT6 (Homo sapiens, UniProt Q8N6T7); experiment: Biolayer interferometry (BLI) binding; set-up: The human full-length SIRT6 gene was inserted into the prokaryotic expression vector (pET-28a (+)); inferred from the pET-28a(+) vector, Ni-NTA purification and Ni-NTA biosensor loading); made in house; host or cells: Escherichia coli BL21 (DE3); conditions: Octet RED, Ni-NTA biosensors, 25 °C
T1 sequence (Q8N6T7 whole entry): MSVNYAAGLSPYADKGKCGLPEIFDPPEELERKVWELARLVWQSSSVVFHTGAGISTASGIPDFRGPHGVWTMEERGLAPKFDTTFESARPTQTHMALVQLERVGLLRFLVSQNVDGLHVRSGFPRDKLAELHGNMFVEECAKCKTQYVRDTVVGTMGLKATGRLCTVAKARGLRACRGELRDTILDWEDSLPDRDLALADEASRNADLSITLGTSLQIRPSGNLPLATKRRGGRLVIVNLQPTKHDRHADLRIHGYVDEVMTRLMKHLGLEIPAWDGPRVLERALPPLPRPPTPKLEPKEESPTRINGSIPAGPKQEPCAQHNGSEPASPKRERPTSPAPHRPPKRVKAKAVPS
Procedure: Binding assays were performed using Ni-NTA biosensors on the Octet® Red96 system (ForteBio, Menlo Park, CA) in 96-well microplates and measuring changes wavelength shift (in nm) over time (s). All steps were carried out at 25 °C with the plate shaking speed of 1000 rpm. The total working volume was 200 μL in 96-well microplate (Greiner Bio-one, Germany). The SIRT6 protein and compounds were diluted with phosphate-buffered saline (PBS, pH 7.4). Ni-NTA biosensors were prewetted for at least 10 min in PBS prior to the assay. Afterwards, the Ni-NTA biosensors were immobilized for 180 s with 200 μL culture containing 20 μg/mL SIRT6. After loading, sensors were washed in PBS buffer for another 120 s and transferred to wells containing different concentrations of compound 8a (0, 12.5, 25, 50, 100 μM) for binding. Finally, the dissociation step was carried out in kinetic buffer for 180 s. The assay data were processed and calculated using the ForteBio Octet RED analysis software.

[2] = tested on: SIRT6 mutants (E140A/R195A, T184A/S191A/P193A/E283A, E22A and D63A); experiment: FDL assay on other SIRT6 mutants; format: biochemical, human; conditions: three mutants
Procedure: Fluor-De-Lys (FDL) assays were used for the examination of the deacetylation activities of sirtuins as described previously. For the detection of SIRT6 activity, the 50-μL reaction mixture contained 5 μM SIRT6, 2.5 mM NAD^+ (β-Nicotinamide adenine dinucleotide hydrate, Sigma, N1636), 75 μM RHKK-Ac-AMC (GL Biochem, Shanghai), compounds/DMSO, and assay buffer. The reactions were incubated at 37 °C for 2 h, added 50 μL stop solution (40 mM nicotinamide, 6 mg/mL trypsin) at 25 °C for 30 min. Fluorescence intensity was measured at an excitation wavelength of 360 nm and an emission wavelength of 460 nm. IC50 values were calculated in GraphPad Prism version 8.00.
To explore the interaction mechanism, we performed the molecular docking experiment between SIRT6 (PDB ID: 6QCJ) and 8a. […] 8a mainly formed hydrogen bond with the backbone amino group of D187 and the ribose hydroxyl group of the coenzyme NAD^+, and stabilized the whole system by hydrophobic interactions with key amino acids such as I8, V70, W71, F82 and F86 (Fig. 2g). To verify this binding model, the mutant (V70A and F86A) of SIRT6 was constructed by site mutation. […] Moreover, there were also some other potential binding pockets predicted by molecular docking (data not shown). Based on the prediction, we constructed other two SIRT6 mutants (E140A/R195A and T184A/S191A/P193A/E283A). […]

[3] = molecular target: T1, SIRT6; experiment: Cellular thermal shift assay (CETSA) in Hela cells; format: cell-based; set-up: endogenous in cells; host or cells: HeLa; conditions: 8a 25 μM, 6 h
Procedure: The CETSA [26] approach builds on the thermal shift assay concept where ligand binding to its target protein affects protein stability at high temperatures. Hela cells were plated in 100 mm plates. After 12 h attachment, Hela cells were incubated with 8a (25 μM) for 6 h, and then the cells were digested with trypsin and collected. The collected cells were subsequently aliquoted into […], and incubated each part at different temperatures (40, 41, 42, 43, 44, 45, 46, 47, 48, 49 and 50 °C) for 3 min. The heated cells were then snap frozen in liquid nitrogen three times to lyse. After that, the lysed cells were then centrifuged at 12,000 rpm for 20 min. Then the level of SIRT6 was detected by western blot.

[4] = tested on: BXPC-3 cells; experiment: Western blot of BXPC-3 cells; format: cell-based
Procedure: Cells were harvested and lysed in a lysis buffer (solarbio, R0010) supplementing 1 mM PMSF and protease inhibitor (TargetMol, USA). […] The blocked membrane was incubated with primary antibodies:SIRT6 (1:1000, Cell Signaling Technology, Cat#12486S, RRID:AB_2636969), Histone H3 Antibody (1:1000, Cell Signaling Technology, Cat#9715S, RRID:AB_331563), β-Actin (1:2000, Cell Signaling Technology, Cat#4970S, RRID:AB_2223172), Cleaved caspases-3 (1:1000, Cell Signaling Technology, Cat#9661S, RRID:AB_2341188), Cleaved Caspase-9 (Asp315) (1:1000, Cell Signaling Technology, Cat#20750S,RRID:AB_2798848), Cleaved PARP (1:1000, Cell Signaling Technology, Cat#5625S, RRID:AB_10699459), AKT (1:1000, Cell Signaling Technology, Cat#9272S, RRID:AB_329827), Phospho-AKT (Ser473) (D9E) (1:1000, Cell Signaling Technology, Cat#4060S, RRID:AB_2315049), ERK1/2 (1:1000, Cell Signaling Technology, Cat#4695S, RRID:AB_390779), Phospho-p44/42 MAPK (ERK1/2) (Thr202/Tyr204) (1:1000, Cell Signaling Technology, Cat#4370S, RRID:AB_2315112), Cyclin D1 (E3P5S) (1:1000, Cell Signaling Technology, Cat#55506 S, RRID:AB_2827374), Phospho-mTOR(Ser2448) (1:1000,Cell Signaling Technology, Cat#5536S, RRID:AB_10691552), Phospho-p70S6Kinase (Thr421/Ser424) (1:1000, Cell Signaling Technology, Cat#9204 S, RRID:AB_2265913), Phospho-Histone H2A.X (Ser139) (1:1000, Cell Signaling Technology, Cat#9718S, RRID:AB_2118009) at 4 °C overnight. After being washed with TBST, the membranes were incubated with horseradish peroxidase-conjugated secondary antibodies at room temperature for 1 h. Then, the membranes were detected by Tanon 5200 (Tanon, Beijing, China).

Kd [1]: 16 ± 0.313 µM
thermal stability of SIRT6 [3]: increased
SMILES: Br.CN(C)C(SCCCCCCn1cnc2c(-c3cc(Br)c(Br)[nH]3)nccc21)=[N+](C)C.[Cl-] [Compound 8a]
effect of mutants on the inhibitory activity of 8a [2]: did not significantly affect
cyclin D1 expression ([4]; BXPC-3, 48 h, dose-dependent): decreased
expression of cleaved-PARP, cleaved-Caspase3, and cleaved-Caspase9 ([4]; BXPC-3, western blot): significantly up-regulated
p-mTOR, p-P70S6K, p-AKT, and p-ERK ([4]; BXPC-3, western blot): significantly down-regulated
acetylation level of H3K9 ([4]; BXPC-3 cells, western blot, dose-dependent): increased
